Two compounds from ChEMBL document CHEMBL3886380, “Oxazole derivatives useful as modulators of FAAH” (2015) can be followed below.

The target in the experiment is T1, Fatty-acid amide hydrolase 1 (Homo sapiens, UniProt O00519).
T1 sequence (O00519 whole entry): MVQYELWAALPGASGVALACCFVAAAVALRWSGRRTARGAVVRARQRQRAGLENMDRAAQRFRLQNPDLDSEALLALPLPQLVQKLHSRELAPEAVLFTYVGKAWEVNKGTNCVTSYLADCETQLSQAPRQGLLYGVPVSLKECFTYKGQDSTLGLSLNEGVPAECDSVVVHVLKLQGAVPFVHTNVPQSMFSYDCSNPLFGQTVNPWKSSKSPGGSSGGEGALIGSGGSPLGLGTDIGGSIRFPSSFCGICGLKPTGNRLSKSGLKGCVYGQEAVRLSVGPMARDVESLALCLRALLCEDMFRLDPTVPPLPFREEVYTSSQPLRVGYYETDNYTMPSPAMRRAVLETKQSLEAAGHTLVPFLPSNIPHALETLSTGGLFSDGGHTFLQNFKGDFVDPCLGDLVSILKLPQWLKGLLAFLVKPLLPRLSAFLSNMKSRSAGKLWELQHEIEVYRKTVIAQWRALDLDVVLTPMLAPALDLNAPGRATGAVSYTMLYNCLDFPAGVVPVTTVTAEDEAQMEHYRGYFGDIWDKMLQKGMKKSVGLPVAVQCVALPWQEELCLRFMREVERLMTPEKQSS
Put plainly: FAAH Assay: Enzyme activity was demonstrated in a radioenzymatic test based on measuring the product of hydrolysis (ethanolamine [3]H) of anandamide [ethanolamine 1-^3H] (American Radiolabeled Chemicals; 1 mCi/ml) with FAAH (Life Sciences (1995), 56, 1999-2005 and Journal of Pharmacology and Experimented Therapeutics (1997), 283, 729-734), Analytical. Biochemistry (2003), 318, 270-5. In ….

Turning to `CN1CCN(CCOC(=O)N2CCC(c3nc(-c4ccc([S+](C)[O-])cc4)c(Sc4ccc(Cl)cn4)o3)CC2)CC1` (configuration not stated), half-maximal inhibition (IC50) was put at 3.09 µM.
As to `C[N+]1(C)CCN(c2ccc(-c3nc(C4CCOCC4)oc3Sc3ccc(Cl)cc3)cn2)CC1`, inhibition was half-maximal at 9.15 µM (IC50).
